Measured values published in patent US20020169101A1, “Treatment of sexual dysfunction” (priority 1999, published 2002).
Where two headings read alike, the source gives them in different places.

Tests used:
human NMB receptor (BB1) = biological target: T1, human NMB receptor (BB1) (Homo sapiens, UniProt P28336); test: BB1 binding assay ([125I][Tyr4]bombesin displacement, CHO-K1 membranes); settings: for Ki: Table 1, human NMB receptor binding affinity, Ki from IC50 by Cheng-Prusoff, read-out: NMB Ki
T1 construct: expressed in transfected cells; membranes prepared from the cells
Outline: (§1)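 Membranes from CHO-K1 cells stably expressing human NMB (BB1) or GRP (BB2) receptors, in 50 mM Tris-HCl pH 7.4 with BSA and protease inhibitors, incubated with [125I][Tyr4]bombesin (<0.1 nM) for 60 min (BB1) or 90 min (BB2). Nonspecific binding defined with 1 μM bombesin; filtration and gamma counting; IC50 converted to Ki by Cheng-Prusoff.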

human GRP receptor (BB2) = biological target: T2, human GRP receptor (BB2) (Homo sapiens, UniProt P30550); test: BB2 binding assay ([125I][Tyr4]bombesin displacement, CHO-K1 membranes); settings: for Ki: Table 1, human GRP receptor binding affinity, Ki from IC50 by Cheng-Prusoff, read-out: GRP Kj
T2 construct: expressed in transfected cells; membranes prepared from the cells
Outline: as §1

[1] = second 'TABLE 4', N-terminal urethane derivatives of Intermediate III-7
[2] = Table 3, N-acyl derivatives of Intermediate III-7

T2 sequence (P30550 whole entry): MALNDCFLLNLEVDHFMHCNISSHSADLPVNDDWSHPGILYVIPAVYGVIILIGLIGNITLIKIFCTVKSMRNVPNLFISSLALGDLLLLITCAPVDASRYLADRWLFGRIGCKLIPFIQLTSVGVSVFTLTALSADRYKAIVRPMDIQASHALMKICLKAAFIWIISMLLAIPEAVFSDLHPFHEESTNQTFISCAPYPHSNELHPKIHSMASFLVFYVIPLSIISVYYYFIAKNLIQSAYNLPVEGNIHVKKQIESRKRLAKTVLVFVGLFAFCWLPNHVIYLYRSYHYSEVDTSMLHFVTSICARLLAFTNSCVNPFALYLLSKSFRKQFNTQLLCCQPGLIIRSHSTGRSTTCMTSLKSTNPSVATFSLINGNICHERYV
T1 sequence (P28336 whole entry): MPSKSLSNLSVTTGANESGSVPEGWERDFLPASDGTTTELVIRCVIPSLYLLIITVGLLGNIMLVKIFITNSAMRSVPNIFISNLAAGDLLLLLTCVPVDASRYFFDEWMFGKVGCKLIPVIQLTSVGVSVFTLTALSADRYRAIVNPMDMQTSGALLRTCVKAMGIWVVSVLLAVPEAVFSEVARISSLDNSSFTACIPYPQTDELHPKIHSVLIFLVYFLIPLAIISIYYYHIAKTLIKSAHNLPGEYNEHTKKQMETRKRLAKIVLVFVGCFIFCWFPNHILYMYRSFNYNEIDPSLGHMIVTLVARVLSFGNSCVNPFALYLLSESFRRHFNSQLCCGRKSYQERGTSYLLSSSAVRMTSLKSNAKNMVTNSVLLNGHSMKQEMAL

Row | Compound | Ki (human NMB receptor (BB1)) [nM] | melting point [°C] | IC50 (human GRP receptor (BB2)) [nM] | IC50 (human NMB receptor (BB1)) [nM] | also measured
1 | COCC1(CNC(=O)[C@](C)(Cc2c[nH]c3ccccc23)Nc2nc(-c3ccc([N+](=O)[O-])cc3)co2)CCCCC1 [Example 10, (S)-3-(1H-Indol-3-yl)-N-(1-methoxymethyl-cyclohexylmethyl)-2-methyl-2-[4-(4-nitro-phenyl)-oxazol-2-ylamino]-propionamide] | 469 | 189 to 192 | – | – | –
2 | C[C@@](Cc1c[nH]c2ccccc12)(Nc1nc(-c2ccc([N+](=O)[O-])cc2)co1)C(=O)NCC(=O)c1ccccc1 [Example 11, (S)-3-(1H-Indol-3-yl)-2-methyl-2-[4-(4-nitro-phenyl)-oxazol-2-ylamino]-N-(2-oxo-2-phenyl-ethyl)-propionamide] | 5580 | 80 to 90 | – | – | –
3 | COc1ccc(C2(CNC(=O)[C@](C)(Cc3c[nH]c4ccccc34)Nc3nc(-c4ccc(C#N)cc4)co3)CCCCC2)nc1 [Example 13, (S)-2-[4-(4-Cyano-phenyl)-oxazol-2-ylamino]-3-(1H-indol-3-yl)-N-[1-(5-methoxy-pyridin-2-yl)-cyclohexylmethyl]-2-methyl-propionamide] | 19 | 105 to 108 | – | – | Ki (human GRP receptor (BB2)): 1380 nM
4 | COc1ccc(C2(CNC(=O)[C@](C)(Cc3c[nH]c4ccccc34)Nc3nc(-c4ccccc4)co3)CCCCC2)nc1 [Example 14, (S)-3-(1H-Indol-3-yl)-N-[1-(5-methoxy-pyridin-2-yl)-cyclohexylmethyl]-2-methyl-2-(4-phenyl-oxazol-2-ylamino)-propionamide] | 106 | 85 to 90 | – | – | Ki (human GRP receptor (BB2)): 1190 nM
5 | CCc1coc(N[C@@](C)(Cc2c[nH]c3ccccc23)C(=O)NCC2(c3ccc(OC)cn3)CCCCC2)n1 [Example 15, (S)-2-(4-Ethyl-oxazol-2-ylamino)-3-(1H-indol-3-yl)-N-[1-(5-methoxy-pyridin-2-yl)-cyclohexylmethyl]-2-methyl-propionamide] | 213 | 60 to 65 | – | – | Ki (human GRP receptor (BB2)): 1770 nM
6 | COc1ccc(C2(CNC(=O)[C@](C)(Cc3c[nH]c4ccccc34)Nc3nc(-c4ccc([N+](=O)[O-])cc4)cs3)CCCCC2)nc1 [Example 16] | 15 | 110 to 114 | – | – | –
7 | C[C@@](Cc1c[nH]c2ccccc12)(Nc1nc2ccccc2o1)C(=O)NCC1(c2ccccn2)CCCCC1 [Example 17, (S)-2-(Benzooxazol-2-ylamino)-3-(1H-indol-3-yl)-2-methyl-N-(1-pyridin-2-yl-cyclohexylmethyl)-propionamide] | 2080 | 198 to 200 | – | – | –
8 | C[C@@](Cc1c[nH]c2ccccc12)(Nc1ccncc1)C(=O)NCC1(c2ccccn2)CCCCC1 [Example 18, (S)-3-(1H-Indol-3-yl)-2-methyl-2-(pyridin-4-ylamino)-N-(1-pyridin-2-yl-cyclohexylmethyl)-propionamide] | 303 | 180 to 195 | – | – | –
9 | C[C@@](Cc1c[nH]c2ccccc12)(Nc1cncc2ccccc12)C(=O)NCC1(c2ccccn2)CCCCC1 [Example 19, (S)-3-(1H-Indol-3-yl)-2-(isoquinolin-4-ylamino)-2-methyl-N-(1-pyridin-2-yl-cyclohexylmethyl)-propionamide] | 1250 | 98 to 101 | – | – | –
10 | C[C@@](Cc1c[nH]c2ccccc12)(Nc1cncnc1)C(=O)NCC1(c2ccccn2)CCCCC1 [Example 20, (S)-3-(1H-Indol-3-yl)-2-methyl-N-(1-pyridin-2-yl-cyclohexylmethyl)-2-(pyrimidin-5-ylamino)-propionamide] | 3160 | 95 to 98 | – | – | –
11 | Cc1cccc(N[C@@](C)(Cc2c[nH]c3ccccc23)C(=O)NCC2(c3ccccn3)CCCCC2)c1 [Example 22, (S)-3-(1H-Indol-3-yl)-2-methyl-N-(1-pyridin-2-yl-cyclohexylmethyl)-2-m-tolylamino-propionamide] | 653 | 70 to 75 | – | – | –
12 | O=C(NCC1(c2ccccn2)CCCCC1)[C@@H](Cc1ccccc1)Nc1ccccc1 [Example 24, (R)-3-Phenyl-2-phenylamino-N-[1 1-pyridin-2-yl-cyclohexylmethyl)-propionamide] | 137 | 113 to 115 | – | – | –
13 | C[C@@](Cc1c[nH]c2ccccc12)(NCc1ccc([N+](=O)[O-])cc1)C(=O)NCC1(c2ccccn2)CCCCC1 [Example 27, (S)-3-(1H-Indol-3-yl)-2-methyl-2-(4-nitro-benzylamino)-N-(1-pyridin-2-yl-cyclohexylmethyl)-propionamide] | 652 | 58 to 60 | – | – | –
14 | Cc1ccc(COC(=O)N[C@@](C)(Cc2c[nH]c3ccccc23)C(=O)NCC2(c3ccccn3)CCCCC2)cc1 [Example 108, {(S)-2-(1H-Indol-3-yl)-1-methyl-1-[(1-pyridin-2-yl-cyclohexylmethyl)-carbamoyl]-ethyl}-carbamic acid 4-methyl-benzyl ester] | – | – | – | – | IC50 (human GRP receptor (BB2); [1]): > 10000 nM; IC50 (human NMB receptor (BB1); [1]): 1080 nM
15 | C[C@@](Cc1c[nH]c2ccccc12)(NC(=O)OCc1cccc(Cl)c1Cl)C(=O)NCC1(c2ccccn2)CCCCC1 [Example 109, {(S)-2-(1H-Indol-3-yl)-1-methyl-1-[(1-pyridin-2-yl-cyclohexylmethyl)-carbamoyl]-ethyl}-carbamic acid 2,3-dichloro-benzyl ester] | – | – | – | – | IC50 (human GRP receptor (BB2); [1]): > 10000 nM; IC50 (human NMB receptor (BB1); [1]): 152 nM
16 | (S)-3-(1H-Indol-3-yl)-2-methyl-N-(1-pyridin-2-yl-cyclohexylmethyl)-2-(2-p-tolyl-ethanoylamino)-propionamide [Example 51] | – | – | – | – | IC50 (human GRP receptor (BB2); [2]): > 10000 nM; IC50 (human NMB receptor (BB1); [2]): 944 nM

Further lines, with some results ahead:

Row | Ki (human NMB receptor (BB1)) [nM] | melting point [°C] | IC50 (human GRP receptor (BB2)) [nM] | IC50 (human NMB receptor (BB1)) [nM] | Compound | also measured
17 | – | – | > 10000 | 186 | C[C@@](Cc1c[nH]c2ccccc12)(NS(=O)(=O)Cc1ccccc1)C(=O)NCC1(c2ccccn2)CCCCC1 [Example 111, (S)-3-(1H-indol-3-yl)-2-methyl-2-phenylmethanesulfonylamino-N-(1-pyridin-2-yl-cyclohexylmethyl)-propionamide] | –
18 | – | – | > 10000 | 257 | C[C@@](Cc1c[nH]c2ccccc12)(NS(=O)(=O)c1ccccc1Cl)C(=O)NCC1(c2ccccn2)CCCCC1 [Example 113, (S)-2-(2-chloro-benzenesulfonylamino)-3-(1H-indol-3-yl)-2-methyl-N-(1-pyridin-2-yl-cyclohexylmethyl)-propionamide] | –
19 | – | – | 1580 | 185 | C[C@@](Cc1c[nH]c2ccccc12)(NS(=O)(=O)c1cccc2ccccc12)C(=O)NCC1(c2ccccn2)CCCCC1 [Example 115, (S)-3-(1H-indol-3-yl)-2-methyl-2-(naphthalene-1-sulfonylamino)-N-(1-pyridin-2-yl-cyclohexylmethyl)-propionamide] | –
20 | – | – | 4390 | 373 | C[C@@](Cc1c[nH]c2ccccc12)(NS(=O)(=O)c1ccc(Cl)cc1)C(=O)NCC1(c2ccccn2)CCCCC1 [Example 116] | –
21 | – | – | > 10000 | 108 | C[C@@](Cc1c[nH]c2ccccc12)(NS(=O)(=O)c1cccc2cccnc12)C(=O)NCC1(c2ccccn2)CCCCC1 [Example 120, (S)-3-(1H-indol-3-yl)-2-methyl-N-(1-pyridin-2-yl-cyclohexylmethyl)-2-(quinoline-8-sulfonylamino)-propionamide] | –
22 | – | – | 4160 | 560 | C[C@@](Cc1c[nH]c2ccccc12)(NS(=O)(=O)c1ccc(F)cc1)C(=O)NCC1(c2ccccn2)CCCCC1 [Example 122] | –
23 | – | – | 2760 | 407 | C[C@@](Cc1c[nH]c2ccccc12)(NS(=O)(=O)c1cccc(F)c1)C(=O)NCC1(c2ccccn2)CCCCC1 [Example 126] | –
24 | – | – | 2690 | 331 | C[C@@](Cc1c[nH]c2ccccc12)(NS(=O)(=O)c1cccc(Cl)c1)C(=O)NCC1(c2ccccn2)CCCCC1 [Example 130] | –
25 | – | – | 1020 | 393 | Cc1cccc(S(=O)(=O)N[C@@](C)(Cc2c[nH]c3ccccc23)C(=O)NCC2(c3ccccn3)CCCCC2)c1 [Example 131] | –
26 | – | – | 3690 | 295 | COc1cccc(S(=O)(=O)N[C@@](C)(Cc2c[nH]c3ccccc23)C(=O)NCC2(c3ccccn3)CCCCC2)c1 [Example 145] | –
27 | – | – | > 10000 | 76 | Cc1ccc(Oc2ccccc2)c(S(=O)(=O)N[C@@](C)(Cc2c[nH]c3ccccc23)C(=O)NCC2(c3ccccn3)CCCCC2)c1 [Example 152, (S)-3-(1H-indol-3-yl)-2-methyl-2-(5-methyl-2-phenoxy-benzenesulfonylamino)-N-(1-pyridin-2-yl-cyclohexylmethyl)-propionamide] | –
28 | – | – | > 10000 | 90 | Cc1ccc(Oc2ccccc2S(=O)(=O)N[C@@](C)(Cc2c[nH]c3ccccc23)C(=O)NCC2(c3ccccn3)CCCCC2)cc1 [Example 153, (S)-3-(1H-indol-3-yl)-2-methyl-N-(1-pyridin-2-yl-cyclohexylmethyl)-2-(2-p-tolyloxy-benzenesulfonylamino)-propionamide] | –
29 | – | – | > 10000 | 166 | C[C@@](Cc1c[nH]c2ccccc12)(NS(=O)(=O)c1ccccc1-c1ccccc1)C(=O)NCC1(c2ccccn2)CCCCC1 [Example 154, (S)-2-(biphenyl-2-sulfonylamino)-3-(1H-indol-3-yl)-2-methyl-N-(1-pyridin-2-yl-cyclohexylmethyl)-propionamide] | –
30 | – | – | 3940 | 299 | Cc1ccc(S(=O)(=O)N[C@@](C)(Cc2c[nH]c3ccccc23)C(=O)NCC2(c3ccccn3)CCCCC2)cc1Cl [Example 158] | –
